The subject of data set [1] is A549. Kind of data set: Antiproliferative activity against human A549 cells assessed as cell growth inhibition incubated for 44 hrs by MTT assay. Format: functional, cell-based. Conditions: A549, 44 h. For orientation: Tetrazolium dyes change colour on reduction, which living cells bring about.
The test system of data set [2] is HCT-116. Kind of data set: Antiproliferative activity against human HCT-116 cells assessed as cell growth inhibition incubated for 44 hrs by MTT assay. Format: functional, cell-based. The settings on record: HCT-116, 44 h.
Data set [3] concerns MCF7. The data set is described as follows: Antiproliferative activity against human MCF7 cells assessed as cell growth inhibition incubated for 44 hrs by MTT assay. The settings on record: MCF7, 44 h. The class given is functional, cell-based.
Data set [4] has as its system PC-3. Kind of data set: Antiproliferative activity against human PC-3 cells assessed as cell growth inhibition incubated for 44 hrs by MTT assay. The class given is functional, cell-based. Conditions: PC-3, 44 h.
Data set [5] is described as follows: Cytotoxicity against human fR2 cells assessed as cell growth inhibition incubated for 44 hrs by MTT assay. Format: toxicity, cell-based.

pIC50: −log10 of the molar value.

The term pIC50 denotes the IC50 on a negative log10 scale, so that one unit is a factor of ten. A word on the IC50: it is the midpoint of a concentration-inhibition curve.

As to `COC(=O)[C@]1([C@H]2CCCCn3c2nc2ccccc2c3=O)NCCc2c1[nH]c1ccccc21`, the pIC50 in data set [1] is 5.10; in data set [2], 5.27; in data set [3], 5.16; in data set [4] it was 5.19. Moreover, the IC50 at 44 h in data set [5] worked out at 35.6 µM.
In the case of `COC(=O)[C@]1([C@H]2CCN(C(=O)c3cccs3)C2=O)NCCc2c1[nH]c1ccccc21` (racemic), the pIC50 in data set [1] was 4.75; in data set [2] it was 4.85; in data set [3] it was 4.80; in data set [4], 4.02. Moreover, the IC50 at 44 h in data set [5] is 39.2 µM.
`COC(=O)[C@]1([C@H]2CCN(C(=O)c3ccccc3)C2=O)NCCc2c1[nH]c1ccccc21` (racemic): the pIC50 is 4.76 in data set [1], 4.78 in data set [2], < 4.00 in data set [3] and < 4.00 in data set [4]. In addition, the IC50 at 44 h in data set [5] is > 100 µM.
In the case of `COC(=O)[C@]1([C@H]2CCCNC2=O)NCCc2c1[nH]c1ccccc21`, the pIC50 is < 4.00 in data set [1], < 4.00 in data set [2], < 4.00 in data set [3] and 4.46 in data set [4]. Also, in data set [5], the IC50 at 44 h was > 100 µM.
Take `COC(=O)[C@]1([C@H]2CCCCNC2=O)NCCc2c1[nH]c1ccccc21`: the pIC50 in data set [1] was < 4.00; in data set [2], < 4.00; in data set [3], 4.03; in data set [4], < 4.00. The IC50 at 44 h in data set [5] is > 100 µM.
`CCOC(=O)[C@]1([C@H]2CCN(C(=O)c3ccccc3[N+](=O)[O-])C2=O)NCCc2c1[nH]c1ccccc21` (racemic): the pIC50 was 4.97 in data set [1], < 4.00 in data set [2], 4.55 in data set [3] and < 4.00 in data set [4]. In addition, the IC50 at 44 h in data set [5] is > 100 µM.
As to `COC(=O)[C@]1([C@H]2CCN(C(=O)c3ccccc3Br)C2=O)NCCc2c1[nH]c1ccccc21` (racemic), the pIC50 in data set [1] is 5.47; in data set [2], 5.41; in data set [3], 5.09; in data set [4] it was 5.21. The IC50 at 44 h in data set [5] came out at 89.8 µM.
The matching figures for `COC(=O)[C@]1([C@H]2CCN(C(=O)c3ccccc3[N+](=O)[O-])C2=O)NCCc2c1[nH]c1cc(OC)ccc21`: 4.90, 5.21, 4.79, 4.51 and 17.8 µM.
In the same order, the values of `COC(=O)[C@]1([C@H]2CCN(C(=O)c3ccccc3F)C2=O)NCCc2c1[nH]c1ccccc21` (racemic) are 5.19, 5.06, 5.16, 5.22 and > 100 µM.
Regarding `COC(=O)[C@@H]1Cc2c([nH]c3ccccc23)[C@@](C(=O)OC)([C@H]2CCCN(C(=O)c3ccccc3[N+](=O)[O-])C2=O)N1`, the pIC50 in data set [1] was 4.71; in data set [2], < 4.00; in data set [3], < 4.00; in data set [4] it was < 4.00. In data set [5], the half-inhibitory concentration (IC50) at 44 h was > 100 µM.
With `COC(=O)[C@]1([C@H]2CCN(C(=O)c3ccccc3I)C2=O)NCCc2c1[nH]c1ccccc21` (racemic), the negative-log IC50 (pIC50) in data set [1] is 5.30; in data set [2], 5.24; in data set [3] it was 5.08; in data set [4], 5.15. Moreover, the IC50 at 44 h in data set [5] is > 100 µM.
In the case of `COC(=O)[C@]1([C@H]2CCN(C(=O)c3ccc(Cl)cc3)C2=O)NCCc2c1[nH]c1ccccc21` (racemic), the pIC50 in data set [1] is 4.69; in data set [2], 4.71; in data set [3], < 4.00; in data set [4], < 4.00. The half-inhibitory concentration (IC50) at 44 h in data set [5] was > 100 µM.
`COC(=O)[C@]1([C@H]2CCN(C(=O)c3ccc(C)cc3C)C2=O)NCCc2c1[nH]c1ccccc21` (racemic): the pIC50 in data set [1] was 4.79; in data set [2], 4.95; in data set [3], < 4.00; in data set [4], 4.22. Besides, the IC50 at 44 h in data set [5] is > 100 µM.
The matching figures for `COC(=O)[C@]1([C@H]2CCN(C(=O)c3ccc(Cl)cc3[N+](=O)[O-])C2=O)NCCc2c1[nH]c1ccccc21` (racemic): < 4.00, < 4.00, < 4.00, < 4.00 and > 100 µM.
The matching figures for `COC(=O)[C@]1([C@H]2CCN(C(=O)c3ccccc3[N+](=O)[O-])C2=O)NCCc2c1[nH]c1ccccc21`: < 4.00, < 4.00, 4.29, < 4.00 and > 100 µM.
In the same order, the values of `COC(=O)[C@]1([C@H]2CCN(C(=O)c3ccc(C(F)(F)F)cc3Cl)C2=O)NCCc2c1[nH]c1ccccc21` (racemic) are 6.07, 5.52, 5.35, 4.87 and 39.2 µM.
Take `CCOC(=O)[C@]1([C@H]2CCN(C(=O)c3ccccc3Cl)C2=O)NCCc2c1[nH]c1ccccc21` (racemic): the pIC50 is 4.14 in data set [1], 4.25 in data set [2], 4.69 in data set [3] and 4.64 in data set [4]. Moreover, in data set [5], the IC50 at 44 h came out at 84 µM.
As to `COC(=O)[C@]1([C@H]2CCCN(C(=O)c3ccccc3Cl)C2=O)NCCc2c1[nH]c1ccccc21` (racemic), the pIC50 was 5.28 in data set [1], 5.27 in data set [2], 4.32 in data set [3] and 4.36 in data set [4]. Also, the IC50 at 44 h in data set [5] was > 100 µM.
The matching figures for `CCOC(=O)[C@]1([C@H]2CCNC2=O)NCCc2c1[nH]c1ccccc21` (racemic): < 4.00, < 4.00, < 4.00, < 4.00 and > 100 µM.
In the same order, the values of `COC(=O)[C@]1([C@H]2CCCN(C(=O)c3ccccc3[N+](=O)[O-])C2=O)NCCc2c1[nH]c1ccccc21` are 4.41, 4.38, 4.29, < 4.00 and > 100 µM.
The matching figures for `COC(=O)[C@@H]1Cc2c([nH]c3ccccc23)[C@@](C(=O)OC)([C@H]2CCNC2=O)N1`: 4.69, 4.56, < 4.00, < 4.00 and > 100 µM.
For `COC(=O)[C@]1([C@H]2CCN(C(=O)c3ccc(C)cc3[N+](=O)[O-])C2=O)NCCc2c1[nH]c1ccccc21` (racemic), the pIC50 in data set [1] is 4.79; in data set [2], < 4.00; in data set [3] it was < 4.00; in data set [4] it was < 4.00. Besides, the IC50 at 44 h in data set [5] is > 100 µM.
Regarding `COC(=O)[C@]1([C@H]2CCNC2=O)NCCc2c1[nH]c1cc(OC)ccc21`, the pIC50 in data set [1] is 4.78; in data set [2], < 4.00; in data set [3] it was 4.09; in data set [4], < 4.00. The IC50 at 44 h in data set [5] is > 100 µM.
As to `COC(=O)[C@]1([C@H]2CCN(C(=O)c3ccc(F)cc3)C2=O)NCCc2c1[nH]c1ccccc21` (racemic), the pIC50 in data set [1] was 5.11; in data set [2], 4.99; in data set [3], < 5.30; in data set [4], 4.77. In data set [5], the IC50 at 44 h worked out at 35.8 µM.
`COC(=O)[C@]1([C@H]2CCCCN(C(=O)c3ccccc3[N+](=O)[O-])C2=O)NCCc2c1[nH]c1ccccc21`: the pIC50 in data set [1] was 4.45; in data set [2], 4.82; in data set [3] it was 5.13; in data set [4], 4.44. Moreover, in data set [5], the IC50 at 44 h came out at 30.2 µM.
Take `COC(=O)[C@@H]1Cc2c([nH]c3ccccc23)[C@@](C(=O)OC)([C@H]2CCCn3c2nc2ccccc2c3=O)N1`: the pIC50 in data set [1] is 4.98; in data set [2], 5.20; in data set [3] it was 5.21; in data set [4], 4.88. In data set [5], the IC50 at 44 h amounted to 33.2 µM.
In the same order, the values of `COC(=O)[C@]1([C@@H]2CCNC2=O)NCCc2c1[nH]c1cc(OC)ccc21` are < 4.00, 5.13, < 4.00, 4.04 and > 100 µM.
The matching figures for `COC(=O)[C@]1([C@H]2CCNC2=O)NCCc2c1[nH]c1ccccc21`: 4.40, 4.59, < 4.00, 4.12 and > 100 µM.
In the same order, the values of `COC(=O)[C@]1([C@H]2CCN(C(=O)c3ccccc3Cl)C2=O)NCCc2c1[nH]c1ccccc21` (racemic) are 5.95, 5.38, 5.79, 5.62 and 20 µM.
On to `COC(=O)[C@]1([C@H]2CCN(C(=O)C3CCC3)C2=O)NCCc2c1[nH]c1ccccc21` (racemic), for which the pIC50 in data set [1] is 4.63; in data set [2], 4.59; in data set [3] it was < 4.00; in data set [4] it was < 4.00. For the same compound, the IC50 at 44 h in data set [5] was > 100 µM.
Regarding `COC(=O)[C@]1([C@H]2CCN(C(=O)c3ccc(Cl)cc3Cl)C2=O)NCCc2c1[nH]c1ccccc21` (racemic), the pIC50 is 4.96 in data set [1], 5.06 in data set [2], 5.08 in data set [3] and 4.95 in data set [4]. Besides, in data set [5], the IC50 at 44 h is > 100 µM.
With `COC(=O)[C@]1([C@H]2CCCn3c2nc2ccccc2c3=O)NCCc2c1[nH]c1ccccc21`, the pIC50 in data set [1] is 5.16; in data set [2] it was 5.38; in data set [3], 5.48; in data set [4], 5.31. In data set [5], the IC50 at 44 h was 93.6 µM.

The values are drawn from ChEMBL document CHEMBL5325471, “Identification of new modulator of DNA repairing pathways based on natural product (±)-peharmaline A” (Bioorg Med Chem, 2023).
